Test results taken from patent US9932340B2, “Substituted indoles” (AbbVie Inc., priority 2014, dated 2018).

biological target: SUV420H1 enzyme (Homo sapiens, UniProt Q4FZB7); assay: TR-FRET SAH SUV420H1 enzyme inhibition assay; assay type: biochemical; conditions: Histone Peptide H4(8-30)me1 and SAM, overnight at room temp, TR-FRET detection of SAH, read-out: TR-FRET SAH_SUV420H1 IC50
Procedure, shortened: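 SUV420H1 (90 nM) preincubated 30 min with compound (3-fold dilutions, 50 to 0.00075 μM), then H4(8-30)me1 peptide 5 nM and SAM 4 nM added, overnight at room temp. SAH product detected by TR-FRET with Tb anti-SAH antibody and Oregon Green-SAH in RIPA buffer, 4 h; IC50 from Hill fit, asymptotes fixed 0-100%.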

Chain of SUV420H1 enzyme (Q4FZB7 whole entry): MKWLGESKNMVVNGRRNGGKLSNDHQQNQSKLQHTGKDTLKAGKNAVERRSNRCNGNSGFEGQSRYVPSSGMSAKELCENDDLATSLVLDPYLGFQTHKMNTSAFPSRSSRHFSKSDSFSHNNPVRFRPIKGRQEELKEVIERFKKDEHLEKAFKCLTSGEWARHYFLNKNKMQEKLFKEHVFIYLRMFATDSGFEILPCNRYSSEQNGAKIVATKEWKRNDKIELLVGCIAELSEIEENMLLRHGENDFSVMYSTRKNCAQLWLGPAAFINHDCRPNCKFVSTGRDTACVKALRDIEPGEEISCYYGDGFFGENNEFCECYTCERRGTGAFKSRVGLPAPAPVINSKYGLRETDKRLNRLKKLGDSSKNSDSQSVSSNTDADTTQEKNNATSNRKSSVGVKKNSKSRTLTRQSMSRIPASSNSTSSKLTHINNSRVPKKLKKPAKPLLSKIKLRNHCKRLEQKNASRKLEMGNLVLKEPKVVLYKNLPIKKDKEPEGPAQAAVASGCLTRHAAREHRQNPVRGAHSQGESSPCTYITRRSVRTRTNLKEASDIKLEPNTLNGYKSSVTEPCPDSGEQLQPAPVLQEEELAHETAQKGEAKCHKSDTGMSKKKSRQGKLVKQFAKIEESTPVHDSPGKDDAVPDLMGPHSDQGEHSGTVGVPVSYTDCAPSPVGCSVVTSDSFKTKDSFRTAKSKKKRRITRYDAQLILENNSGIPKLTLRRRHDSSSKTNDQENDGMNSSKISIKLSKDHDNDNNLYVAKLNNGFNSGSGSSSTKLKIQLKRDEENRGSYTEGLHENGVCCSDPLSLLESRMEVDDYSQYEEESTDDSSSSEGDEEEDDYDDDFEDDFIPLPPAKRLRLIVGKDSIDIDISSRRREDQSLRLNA

SMILES | IC50
N#Cc1cccc(-c2ccc(Cn3cnc4c(N)ncnc43)c3[nH]c(CN)cc23)c1 [Example 83, 3-{2-(aminomethyl)-7-[(6-amino-9H-purin-9-yl)methyl]-1H-indol-4-yl}benzonitrile] | 831 nM
Nc1ncnc2c1ncn2Cc1cc(Cl)cc2cc(CNC(=O)c3ccc4snnc4c3)[nH]c12 [Example 329, N-({7-[(6-amino-9H-purin-9-yl)methyl]-5-chloro-1H-indol-2-yl}methyl)-1,2,3-benzothiadiazole-5-carboxamide] | 410 nM
Nc1ncnc2c1ncn2Cc1cc(Cl)cc2cc(CNC(=O)c3ccc4[nH]ccc4c3)[nH]c12 [Example 357, N-({7-[(6-amino-9H-purin-9-yl)methyl]-5-chloro-1H-indol-2-yl}methyl)-1H-indole-5-carboxamide] | 12000 nM
Cc1noc(C)c1C(=O)NCc1cc2cc(-c3cccc(C(=O)N(C)C)c3)cc(Cn3cnc4c(N)ncnc43)c2[nH]1 [Example 177, N-({7-[(6-amino-9H-purin-9-yl)methyl]-5-[3-(dimethylcarbamoyl)phenyl]-1H-indol-2-yl}methyl)-3,5-dimethyl-1,2-oxazole-4-carboxamide] | 106 nM
Cn1cc(-c2cc(Cn3cnc4c(N)ncnc43)c3[nH]c(CN)cc3c2)cn1 [Example 18, 9-{[2-(aminomethyl)-5-(1-methyl-1H-pyrazol-4-yl)-1H-indol-7-yl]methyl}-9H-purin-6-amine] | 561 nM
Cc1ccc(-c2cc(Cn3cnc4c(N)ncnc43)c3[nH]c(CNC(=O)c4c(C)noc4C)cc3c2)cc1 [Example 167, N-({7-[(6-amino-9H-purin-9-yl)methyl]-5-(4-methylphenyl)-1H-indol-2-yl}methyl)-3,5-dimethyl-1,2-oxazole-4-carboxamide] | 225 nM
Nc1ncnc2c1ncn2Cc1cc(Cl)cc2cc(CNC(=O)c3ccc4[nH]ccc4n3)[nH]c12 [Example 343, N-({7-[(6-amino-9H-purin-9-yl)methyl]-5-chloro-1H-indol-2-yl}methyl)-1H-pyrrolo[3,2-b]pyridine-5-carboxamide] | 4820 nM
Cc1nc2cc(C(=O)NCc3cc4cc(Cl)cc(Cn5cnc6c(N)ncnc65)c4[nH]3)ccc2n1CCO [Example 376, N-({7-[(6-amino-9H-purin-9-yl)methyl]-5-chloro-1H-indol-2-yl}methyl)-1-(2-hydroxyethyl)-2-methyl-1H-benzimidazole-5-carboxamide] | 2950 nM
COc1ccc(-c2cc(Cn3cnc4c(N)ncnc43)c3[nH]c(CNC(=O)c4c(C)noc4C)cc3c2)cc1 [Example 168, N-({7-[(6-amino-9H-purin-9-yl)methyl]-5-(4-methoxyphenyl)-1H-indol-2-yl}methyl)-3,5-dimethyl-1,2-oxazole-4-carboxamide] | 333 nM
C=C(C)c1ccc2cc(CN)[nH]c2c1Cn1cnc2c(N)ncnc21 [Example 60, 9-{[2-(aminomethyl)-6-(prop-1-en-2-yl)-1H-indol-7-yl]methyl}-9H-purin-6-amine] | 38400 nM
NCc1cc2cc(C3=CCCC3)cc(Cn3cnc4c(N)ncnc43)c2[nH]1 [Example 11, 9-{[2-(aminomethyl)-5-(cyclopent-1-en-1-yl)-1H-indol-7-yl]methyl}-9H-purin-6-amine] | 178 nM
Nc1ncnc2c1ncn2Cc1cc(Cl)cc2cc(CNC(=O)c3ccccc3OC(F)F)[nH]c12 [Example 261, N-({7-[(6-amino-9H-purin-9-yl)methyl]-5-chloro-1H-indol-2-yl}methyl)-2-(difluoromethoxy)benzamide] | 1990 nM
CC(=O)N1CC=C(c2cc(Cn3cnc4c(N)ncnc43)c3[nH]c(CNC(=O)c4ccc(C#N)cc4C)cc3c2)CC1 [Example 307, N-({5-(1-acetyl-1,2,3,6-tetrahydropyridin-4-yl)-7-[(6-amino-9H-purin-9-yl)methyl]-1H-indol-2-yl}methyl)-4-cyano-2-methylbenzamide] | 29.7 nM
Cc1cc(C(=O)NCc2cc3cc(C4=CCC(F)(F)CC4)cc(Cn4cnc5c(N)ncnc54)c3[nH]2)c(C)nn1 [Example 236, N-({7-[(6-amino-9H-purin-9-yl)methyl]-5-(4,4-difluorocyclohex-1-en-1-yl)-1H-indol-2-yl}methyl)-3,6-dimethylpyridazine-4-carboxamide] | 33.8 nM
NCc1cc2cc(-c3ccc(CO)cc3)cc(Cn3cnc4c(N)ncnc43)c2[nH]1 [Example 33, (4-{2-(aminomethyl)-7-[(6-amino-9H-purin-9-yl)methyl]-1H-indol-5-yl}phenyl)methanol] | 528 nM
COC(=O)c1ccc(-c2cc(Cn3cnc4c(N)ncnc43)c3[nH]c(CN)cc3c2)cc1 [Example 44, methyl 4-{2-(aminomethyl)-7-[(6-amino-9H-purin-9-yl)methyl]-1H-indol-5-yl}benzoate] | 560 nM
Cn1ccc2cc(C(=O)NCc3cc4cc(Cl)cc(Cn5cnc6c(N)ncnc65)c4[nH]3)ccc21 [Example 366, N-({7-[(6-amino-9H-purin-9-yl)methyl]-5-chloro-1H-indol-2-yl}methyl)-1-methyl-1H-indole-5-carboxamide] | 2870 nM

The remaining lines, values ahead:

IC50 | SMILES
4600 nM | Nc1ncnc2c1ncn2Cc1cc(Cl)cc2cc(CNC(=O)c3cccs3)[nH]c12 [Example 144, N-({7-[(6-amino-9H-purin-9-yl)methyl]-5-chloro-1H-indol-2-yl}methyl)thiophene-2-carboxamide]
2770 nM | Nc1ncnc2c1ncn2Cc1cc(Cl)cc2cc(CNC(=O)c3cccc(F)c3)[nH]c12 [Example 224, N-({7-[(6-amino-9H-purin-9-yl)methyl]-5-chloro-1H-indol-2-yl}methyl)-3-fluorobenzamide]
2860 nM | CCc1oncc1C(=O)NCc1cc2cc(Cl)cc(Cn3cnc4c(N)ncnc43)c2[nH]1 [Example 181, N-({7-[(6-amino-9H-purin-9-yl)methyl]-5-chloro-1H-indol-2-yl}methyl)-5-ethyl-1,2-oxazole-4-carboxamide]
4580 nM | COc1ccc(C(=O)NCc2cc3cc(Cl)cc(Cn4cnc5c(N)ncnc54)c3[nH]2)cc1 [Example 258, N-({7-[(6-amino-9H-purin-9-yl)methyl]-5-chloro-1H-indol-2-yl}methyl)-4-methoxybenzamide]
13200 nM | CNc1ccccc1C(=O)NCc1cc2cc(Cl)cc(Cn3cnc4c(N)ncnc43)c2[nH]1 [Example 275, N-({7-[(6-amino-9H-purin-9-yl)methyl]-5-chloro-1H-indol-2-yl}methyl)-2-(methylamino)benzamide]
3430 nM | Cc1cnc(C(=O)NCc2cc3cc(Cl)cc(Cn4cnc5c(N)ncnc54)c3[nH]2)cn1 [Example 205, N-({7-[(6-amino-9H-purin-9-yl)methyl]-5-chloro-1H-indol-2-yl}methyl)-5-methylpyrazine-2-carboxamide]
1890 nM | Nc1ncnc2c1ncn2Cc1cc(Cl)cc2cc(CNCc3ccccc3Br)[nH]c12 [Example 208, 9-[(2-{[(2-bromobenzyl)amino]methyl}-5-chloro-1H-indol-7-yl)methyl]-9H-purin-6-amine]
17000 nM | CC1(C(=O)NCc2cc3cc(Cl)cc(Cn4cnc5c(N)ncnc54)c3[nH]2)CC1 [Example 108, N-({7-[(6-amino-9H-purin-9-yl)methyl]-5-chloro-1H-indol-2-yl}methyl)-1-methylcyclopropanecarboxamide]
18400 nM | Nc1ncnc2c1ncn2Cc1cc(Cl)cc2cc(CNC(=O)[C@H]3CCC(=O)N3)[nH]c12 [Example 118, (2R)—N-({7-[(6-amino-9H-purin-9-yl)methyl]-5-chloro-1H-indol-2-yl}methyl)-5-oxopyrrolidine-2-carboxamide]
10700 nM | Nc1ncnc2c1ncn2Cc1cc(Cl)cc2cc(CNC(=O)CC3CC3)[nH]c12 [Example 110, N-({7-[(6-amino-9H-purin-9-yl)methyl]-5-chloro-1H-indol-2-yl}methyl)-2-cyclopropylacetamide]
4150 nM | COc1cc(C(=O)NCc2cc3cc(Cl)cc(Cn4cnc5c(N)ncnc54)c3[nH]2)ccc1C [Example 300, N-({7-[(6-amino-9H-purin-9-yl)methyl]-5-chloro-1H-indol-2-yl}methyl)-3-methoxy-4-methylbenzamide]
> 50000 nM | Nc1ncnc2c1ncn2Cc1cc(Cl)cc2cc(CNC(=O)Cc3ccc(F)cc3)[nH]c12 [Example 254, N-({7-[(6-amino-9H-purin-9-yl)methyl]-5-chloro-1H-indol-2-yl}methyl)-2-(4-fluorophenyl)acetamide]
767 nM | Nc1ncnc2c1ncn2Cc1cc(Cl)cc2cc(CNC(=O)c3cnsc3)[nH]c12 [Example 139, N-({7-[(6-amino-9H-purin-9-yl)methyl]-5-chloro-1H-indol-2-yl}methyl)-1,2-thiazole-4-carboxamide]
4500 nM | CN(C)c1ccc(CC(=O)NCc2cc3cc(Cl)cc(Cn4cnc5c(N)ncnc54)c3[nH]2)cc1 [Example 317, N-({7-[(6-amino-9H-purin-9-yl)methyl]-5-chloro-1H-indol-2-yl}methyl)-2-[4-(dimethylamino)phenyl]acetamide]
783 nM | Nc1ncnc2c1ncn2Cc1cc(Cl)cc2cc(CNC(=O)c3cnoc3)[nH]c12 [Example 141, N-({7-[(6-amino-9H-purin-9-yl)methyl]-5-chloro-1H-indol-2-yl}methyl)-1,2-oxazole-4-carboxamide]
13200 nM | CCNc1ccccc1C(=O)NCc1cc2cc(Cl)cc(Cn3cnc4c(N)ncnc43)c2[nH]1 [Example 310, N-({7-[(6-amino-9H-purin-9-yl)methyl]-5-chloro-1H-indol-2-yl}methyl)-2-(ethylamino)benzamide]
2600 nM | CNCc1cc2cc(Cl)cc(Cn3cnc4c(N)ncnc43)c2[nH]1 [Example 89, 9-({5-chloro-2-[(methylamino)methyl]-1H-indol-7-yl}methyl)-9H-purin-6-amine]
> 50000 nM | Cc1ccccc1CC(=O)NCc1cc2cc(Cl)cc(Cn3cnc4c(N)ncnc43)c2[nH]1 [Example 294, N-({7-[(6-amino-9H-purin-9-yl)methyl]-5-chloro-1H-indol-2-yl}methyl)-2-(2-methylphenyl)acetamide]
